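Grown in 96-well plates, cells were treated for 48 hours with each compound at five concentrations. Insufficient inhibition: endpoint recorded as highest concentration tested. GI50: concentration for 50% inhibition of growth.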 Active and inactive are the calls of the source. Rule as the data show it: active = GI50 up to about 1.1 µM and inactive = higher.
Columns and labels:
Experiment in all cases: NCI anticancer screen, dose series, 48 h
[1] = system: NCI-H522
[2] = system: UACC-62
[3] = system: MOLT-4
[4] = system: OVCAR-4
[5] = system: K562
[6] = system: SK-MEL-2
[7] = system: LOX IMVI
[8] = system: RXF 393
[9] = system: SN12C
[10] = system: EKVX
[11] = system: HCT-116
[12] = system: ACHN
[13] = system: KM12
[14] = system: HL-60
[15] = system: A549
[16] = system: SR
[17] = system: OVCAR-5
[18] = system: 786-0
[19] = system: SK-MEL-28
[20] = system: HCC 2998

Structure (SMILES) | GI50 [1] | GI50 [2] | GI50 [3] | GI50 [4] | GI50 [5] | GI50 [6] | GI50 [7] | GI50 [8] | GI50 [9] | GI50 [10] | GI50 [11] | GI50 [12] | GI50 [13] | GI50 [14] | GI50 [15] | GI50 [16] | GI50 [17] | GI50 [18] | GI50 [19] | GI50 [20]
COc1cc(/C=C2\N=C(c3ccccc3)N(c3ccc(S(=O)(=O)Nc4nccs4)cc3)C2=O)ccc1O | 50.4 µM (inactive) | 43.9 µM (inactive) | > 100 µM (inactive) | > 100 µM (inactive) | 55.8 µM (inactive) | > 100 µM (inactive) | 40.3 µM (inactive) | 62.2 µM (inactive) | > 100 µM (inactive) | 63.8 µM (inactive) | 70.3 µM (inactive) | > 100 µM (inactive) | > 100 µM (inactive) | 51.2 µM (inactive) | > 100 µM (inactive) | 59.7 µM (inactive) | > 100 µM (inactive) | > 100 µM (inactive) | – | –
O=c1c2cccnc2ncn1CCN1CCCC1 | > 100 µM (inactive) | > 100 µM (inactive) | > 100 µM (inactive) | > 100 µM (inactive) | > 100 µM (inactive) | > 100 µM (inactive) | > 100 µM (inactive) | > 100 µM (inactive) | > 100 µM (inactive) | > 100 µM (inactive) | > 100 µM (inactive) | > 100 µM (inactive) | > 100 µM (inactive) | – | > 100 µM (inactive) | > 100 µM (inactive) | > 100 µM (inactive) | > 100 µM (inactive) | > 100 µM (inactive) | > 100 µM (inactive)
NCCCC[C@H](N)C(=O)Nc1ccc(-c2nc3ccccc3s2)cc1Cl | 4.84 µM (inactive) | 14.6 µM (inactive) | 3 µM (inactive) | – | 2.74 µM (inactive) | 16.8 µM (inactive) | 1.36 µM (inactive) | 12.4 µM (inactive) | 14.6 µM (inactive) | 5.6 µM (inactive) | 0.713 µM (active) | 13.4 µM (inactive) | 2.97 µM (inactive) | – | 2.96 µM (inactive) | 2.36 µM (inactive) | 0.34 µM (active) | 3.05 µM (inactive) | 7.89 µM (inactive) | 0.681 µM (active)
O=C(c1ccco1)C1CC(c2ccc3ccccc3c2O)=NN1 (configuration not stated) | > 100 µM (inactive) | > 100 µM (inactive) | 36.7 µM (inactive) | > 100 µM (inactive) | 38.6 µM (inactive) | 71 µM (inactive) | – | > 100 µM (inactive) | > 100 µM (inactive) | – | 57.4 µM (inactive) | > 100 µM (inactive) | > 100 µM (inactive) | – | 47 µM (inactive) | 20.2 µM (inactive) | > 100 µM (inactive) | 98.9 µM (inactive) | > 100 µM (inactive) | > 100 µM (inactive)
Clc1ccc(-c2nn3c(-c4ccncc4)nnc3s2)cc1 | > 100 µM (inactive) | > 100 µM (inactive) | > 100 µM (inactive) | > 100 µM (inactive) | > 100 µM (inactive) | > 100 µM (inactive) | > 100 µM (inactive) | 25.6 µM (inactive) | > 100 µM (inactive) | > 100 µM (inactive) | > 100 µM (inactive) | 61 µM (inactive) | > 100 µM (inactive) | > 100 µM (inactive) | > 100 µM (inactive) | > 100 µM (inactive) | > 100 µM (inactive) | 11 µM (inactive) | – | –
CCCCCCCCCCCc1noc2c1C(=O)C(O)CC2 (configuration not stated) | 20.5 µM (inactive) | 16.4 µM (inactive) | 22.3 µM (inactive) | 16.6 µM (inactive) | 17.2 µM (inactive) | 17.5 µM (inactive) | 18.1 µM (inactive) | 14.2 µM (inactive) | 16.1 µM (inactive) | 33.5 µM (inactive) | 17.6 µM (inactive) | 32.8 µM (inactive) | 22.9 µM (inactive) | 23.9 µM (inactive) | 22 µM (inactive) | 27.2 µM (inactive) | 18.2 µM (inactive) | 17.9 µM (inactive) | 23.8 µM (inactive) | –
NCc1cccc(O)c1O | > 100 µM (inactive) | > 100 µM (inactive) | > 100 µM (inactive) | > 100 µM (inactive) | > 100 µM (inactive) | > 100 µM (inactive) | > 100 µM (inactive) | > 100 µM (inactive) | > 100 µM (inactive) | > 100 µM (inactive) | 79.8 µM (inactive) | > 100 µM (inactive) | > 100 µM (inactive) | 38.7 µM (inactive) | > 100 µM (inactive) | > 100 µM (inactive) | > 100 µM (inactive) | > 100 µM (inactive) | > 100 µM (inactive) | –
CCCCn1c(C)c(C(=O)CC)c(C(=O)NCCN2CCN(c3ccccc3Cl)CC2)c1C | 17.4 µM (inactive) | 15.8 µM (inactive) | 18.7 µM (inactive) | 17.6 µM (inactive) | 26.7 µM (inactive) | 16.7 µM (inactive) | 19.3 µM (inactive) | 19.9 µM (inactive) | 16.1 µM (inactive) | 16.3 µM (inactive) | 14.3 µM (inactive) | 16.4 µM (inactive) | 19.8 µM (inactive) | 15.2 µM (inactive) | 16.3 µM (inactive) | 13.7 µM (inactive) | 17.5 µM (inactive) | 16.1 µM (inactive) | 20.9 µM (inactive) | –
O=C(/C(=N/Nc1ccccc1)c1ccc([N+](=O)[O-])cc1)c1ccc([N+](=O)[O-])cc1 | 21.9 µM (inactive) | > 100 µM (inactive) | > 100 µM (inactive) | > 100 µM (inactive) | 64.4 µM (inactive) | > 100 µM (inactive) | – | > 100 µM (inactive) | > 100 µM (inactive) | > 100 µM (inactive) | > 100 µM (inactive) | > 100 µM (inactive) | > 100 µM (inactive) | – | > 100 µM (inactive) | > 100 µM (inactive) | > 100 µM (inactive) | > 100 µM (inactive) | > 100 µM (inactive) | > 100 µM (inactive)
CC(C)C.C[N+](C)(C)C.OC(c1ccccc1)(C(F)(F)F)C(F)(F)F.OC(c1ccccc1)(C(F)(F)F)C(F)(F)F.[SiH3-] | 6.01 µM (inactive) | – | 1.73 µM (inactive) | 7.59 µM (inactive) | 3.89 µM (inactive) | 9.1 µM (inactive) | – | 3.18 µM (inactive) | 5.68 µM (inactive) | 3.73 µM (inactive) | 3.46 µM (inactive) | 8.51 µM (inactive) | 3.92 µM (inactive) | – | 4.79 µM (inactive) | 2.09 µM (inactive) | 2.28 µM (inactive) | 2.97 µM (inactive) | 12.4 µM (inactive) | 3.56 µM (inactive)
NNC(=O)c1ccc(OCc2nc3ccccc3[nH]2)cc1 | 30 µM (inactive) | > 100 µM (inactive) | 14.8 µM (inactive) | > 100 µM (inactive) | 39.5 µM (inactive) | > 100 µM (inactive) | > 100 µM (inactive) | 34.8 µM (inactive) | > 100 µM (inactive) | > 100 µM (inactive) | 29.1 µM (inactive) | > 100 µM (inactive) | > 100 µM (inactive) | 43.7 µM (inactive) | > 100 µM (inactive) | 25.2 µM (inactive) | > 100 µM (inactive) | > 100 µM (inactive) | > 100 µM (inactive) | –
Cn1c(O)c(C2=Nc3ccccc3C2=O)c2ccccc21 | > 100 µM (inactive) | > 100 µM (inactive) | > 100 µM (inactive) | > 100 µM (inactive) | > 100 µM (inactive) | > 100 µM (inactive) | > 100 µM (inactive) | > 100 µM (inactive) | > 100 µM (inactive) | > 100 µM (inactive) | > 100 µM (inactive) | > 100 µM (inactive) | > 100 µM (inactive) | – | > 100 µM (inactive) | > 100 µM (inactive) | > 100 µM (inactive) | > 100 µM (inactive) | > 100 µM (inactive) | > 100 µM (inactive)
BrC1=CCC23CC=C(Br)[C@H]4CC2(COC3)C[C@@H]1O4 (some centres not stated) | 24.3 µM (inactive) | 46.1 µM (inactive) | 25.8 µM (inactive) | 27 µM (inactive) | 27.5 µM (inactive) | 54.7 µM (inactive) | 71.6 µM (inactive) | 32 µM (inactive) | 52 µM (inactive) | > 100 µM (inactive) | 29.2 µM (inactive) | > 100 µM (inactive) | 54.2 µM (inactive) | 6.41 µM (inactive) | > 100 µM (inactive) | 23.4 µM (inactive) | 21.2 µM (inactive) | 33.2 µM (inactive) | 22.6 µM (inactive) | –
COC(=O)C[C@H](COCc1ccccc1)NC(=O)C[C@H](COCc1ccccc1)NC(=O)OC(C)(C)C | 21.2 µM (inactive) | 36.6 µM (inactive) | 56 µM (inactive) | 18.5 µM (inactive) | 40.2 µM (inactive) | 37.2 µM (inactive) | 53.3 µM (inactive) | 29.6 µM (inactive) | 26.4 µM (inactive) | 18.9 µM (inactive) | 27.5 µM (inactive) | 38.6 µM (inactive) | 45.3 µM (inactive) | > 100 µM (inactive) | 24.2 µM (inactive) | 39.1 µM (inactive) | 33.8 µM (inactive) | 20.4 µM (inactive) | > 100 µM (inactive) | –
CCCCCCCCCCOC(=O)c1cc[n+](C)cc1 | 16.1 µM (inactive) | 16.8 µM (inactive) | 18.2 µM (inactive) | 18.1 µM (inactive) | 16.3 µM (inactive) | 17.3 µM (inactive) | 17.6 µM (inactive) | 19.7 µM (inactive) | 16.9 µM (inactive) | 16.7 µM (inactive) | 18.3 µM (inactive) | 18.6 µM (inactive) | 16.9 µM (inactive) | 17.8 µM (inactive) | 17 µM (inactive) | 16.3 µM (inactive) | 13.6 µM (inactive) | 17.6 µM (inactive) | 17.4 µM (inactive) | –
